Patent publication USRE48461E1, “Modulation of androgen receptor expression” (Ionis Pharmaceuticals, Inc., priority 2012, dated 2021)

How the values were obtained:
Type in all cases: cell-based, human
PSA mRNA = test: PSA expression in C4-2 cells; details: 48 hrs; for Percent inhibition of PSA expression: C4-2 cells, CSS + DHT medium
Method: Cells were plated at 1,000 cells per well. […] After an incubation period of 48 hrs, RNA levels of AR, PSA and TMPRSS2 were measured.
Cells were plated at 2,000 cells per well and cultured in CSS media with 1 nM DHT. […] After an incubation period of 48 hrs, RNA levels of AR, PSA and TMPRSS2 were measured.

TMPRSS2 mRNA [1] = test: TMPRSS2 expression in LNCaP cells (complete, CSS+DHT medium); details: for Percent inhibition of TMPRSS2 expression in LNCaP cells cultured in CSS + DHT medium: CSS + DHT (1 nM) medium, 48 hrs; for Percent inhibition of TMPRSS2 expression in LNCaP cells cultured in complete medium: 48 hours
Method: Cells were plated at 1,000 cells per well. […] ISIS 549148 was included as a negative control. […] After an incubation period of 48 hours, RNA levels of AR, PSA and TMPRSS2 were measured.
Cells were plated at 2,000 cells per well and cultured in phenol red-free RPMI supplemented with 5% charcoal stripped serum (Gibco) media for 16 hours. […] ISIS 549148 was included as a negative control. […] After an incubation period of 4 hrs, DHT was added to the medium to a final concentration of 1 nM as indicated. RNAs were collected 48 hrs later and levels of AR, PSA and TMPRSS2 were measured. In the absence of DHT, AR expression in LNCaP cells was 95%, PSA expression was 7% and TMPRSS2 expression was 24% compared to the untreated control.

TMPRSS2 mRNA [2] = test: Time-course TMPRSS2 expression in C4-2B cells
Method: C4-2B cells were plated at 1,000 cells per well in complete medium. […] ISIS 549148 was included as a negative control. […] After a treatment period of 8 hours, 24 hours, and 48 hours, AR expression was measured with primer probe set hAR-LTS00943. Results are presented in Tables 70-72 as percent expression of AR, relative to non-treated cells.
Expression analysis of prostate-specific antigen (PSA) and TMPRSS2 were also analyzed. Results are presented in Tables 73-75 as percent inhibition of PSA expression and Tables 76-78 as percent inhibition of TMPRSS2 expression, relative to non-treated cells.

LNCaP cells = test: LNCaP cell proliferation (complete or CSS+DHT medium); details: 5 days; for Proliferation (% untreated control) in LNCaP cells cultured in CSS + DHT medium: CSS + 1 nM DHT medium
Method: After a treatment period of 5 days in complete medium or CSS+1 nM DHT medium, the proliferative capacity of the cancer cells was measured with using CellTiter 96® AQueous One Solution or CellTiter-Glo® solution Cell Proliferation kit (Promega), following the manufacturer's instructions. […] Treatment with ISIS oligonucleotides in CSS+DHT medium reduced the proliferative capacity to a greater extent than treatment with MVD-3100. The proliferative capacity of cells cultured in CSS medium without DHT is 17% of untreated control levels.

AR mRNA = test: AR RNA expression in LNCaP cells (complete, CSS, CSS+DHT medium); details: for Percent expression of AR in LNCaP cells cultured in CSS + DHT medium: CSS + DHT (1 nM) medium; for Percent expression of AR in LNCaP cells cultured in CSS + DHT medium / Percent expression of AR in LNCaP cells cultured in CSS medium: 48 hrs; for Percent expression of AR in LNCaP cells cultured in complete medium: 48 hours
Method: Cells were plated at 1,000 cells per well. […] After an incubation period of 48 hours, RNA levels of AR, PSA and TMPRSS2 were measured.
Cells were plated at 2,000 cells per well and cultured in phenol red-free RPMI supplemented with 5% charcoal stripped serum (Gibco) media for 16 hours. […] After an incubation period of 4 hrs, DHT was added to the medium to a final concentration of 1 nM as indicated. RNAs were collected 48 hrs later and levels of AR, PSA and TMPRSS2 were measured.

TMPRSS2 mRNA [3] = test: TMPRSS2 expression in 22RV1 cells; details: 48 hrs
Method: Cells were plated at 1,000 cells per well. […] After an incubation period of 48 hrs, RNA levels of full length AR, the V7 variant, PSA and TMPRSS2 were measured.
After an incubation period of 48 hrs, RNA levels of full length AR, the V7 variant, PSA and TMPRSS2 were measured.
Cells were plated at 2,000 cells per well and cultured in CSS media for 16 hours. […] After 4 hrs, 1 nM DHT was added. […] After an incubation period of 48 hrs, RNA levels of AR, AR V7 variant, PSA and TMPRSS2 were measured.

## CNC(=O)c1ccc(N2C(=S)N(c3ccc(C#N)c(C(F)(F)F)c3)C(=O)C2(C)C)cc1F [MDV3100, 4-(3-(4-cyano-3-(trifluoromethyl)phenyl)-5,5-dimethyl-4-oxo-2-thioxoimidazolidin-1-yl)-2-fluoro-N-methylbenzamide, reference compound]
PSA mRNA; 0.04 μM
  Percent inhibition of PSA expression: 9%
  Percent inhibition of PSA expression in C4-2 cells cultured in complete medium: 28%
PSA mRNA; 0.2 μM
  Percent inhibition of PSA expression: 8%
  Percent inhibition of PSA expression in C4-2 cells cultured in complete medium: 40%
PSA mRNA; 1 μM
  Percent inhibition of PSA expression: 51%
  Percent inhibition of PSA expression in C4-2 cells cultured in complete medium: 72%
PSA mRNA; 5.0 μM
  Percent inhibition of PSA expression: 73%
  Percent inhibition of PSA expression in C4-2 cells cultured in complete medium: 89%
TMPRSS2 mRNA [1]; 0.04 μM
  Percent inhibition of TMPRSS2 expression in LNCaP cells cultured in CSS + DHT medium: 8%
  Percent inhibition of TMPRSS2 expression in LNCaP cells cultured in complete medium: 0%
TMPRSS2 mRNA [1]; 0.2 μM
  Percent inhibition of TMPRSS2 expression in LNCaP cells cultured in CSS + DHT medium: 24%
  Percent inhibition of TMPRSS2 expression in LNCaP cells cultured in complete medium: 0%
TMPRSS2 mRNA [1]; 1 μM
  Percent inhibition of TMPRSS2 expression in LNCaP cells cultured in CSS + DHT medium: 60%
  Percent inhibition of TMPRSS2 expression in LNCaP cells cultured in complete medium: 34%
TMPRSS2 mRNA [1]; 5.0 μM
  Percent inhibition of TMPRSS2 expression in LNCaP cells cultured in CSS + DHT medium: 69%
  Percent inhibition of TMPRSS2 expression in LNCaP cells cultured in complete medium: 39%
TMPRSS2 mRNA [2]; 0.04 μM
  Percent inhibition of TMPRSS2 expression compared to the control group in 8 hours: 0%
  Percent inhibition of TMPRSS2 expression compared to the control group in 24 hours: 23%
  Percent inhibition of TMPRSS2 expression compared to the control group in 48 hours: 5%
TMPRSS2 mRNA [2]; 0.2 μM
  Percent inhibition of TMPRSS2 expression compared to the control group in 8 hours: 6%
  Percent inhibition of TMPRSS2 expression compared to the control group in 24 hours: 31%
  Percent inhibition of TMPRSS2 expression compared to the control group in 48 hours: 16%
TMPRSS2 mRNA [2]; 1 μM
  Percent inhibition of TMPRSS2 expression compared to the control group in 8 hours: 45%
  Percent inhibition of TMPRSS2 expression compared to the control group in 24 hours: 63%
  Percent inhibition of TMPRSS2 expression compared to the control group in 48 hours: 46%
TMPRSS2 mRNA [2]; 5.0 μM
  Percent inhibition of TMPRSS2 expression compared to the control group in 8 hours: 52%
  Percent inhibition of TMPRSS2 expression compared to the control group in 24 hours: 72%
  Percent inhibition of TMPRSS2 expression compared to the control group in 48 hours: 59%
TMPRSS2 mRNA [2]; time course
  TMPRSS2 expression: also reduced downstream gene expressions but not as potently as that with the ISIS oligonucleotides
LNCaP cells; 0.04 μM
  Proliferation (% untreated control) in LNCaP cells cultured in CSS + DHT medium: 112 % untreated control
  Proliferation (% untreated control) in LNCaP cells cultured in complete medium: 107 % untreated control
LNCaP cells; 0.2 μM
  Proliferation (% untreated control) in LNCaP cells cultured in CSS + DHT medium: 95 % untreated control
  Proliferation (% untreated control) in LNCaP cells cultured in complete medium: 88 % untreated control
LNCaP cells; 1 μM
  Proliferation (% untreated control) in LNCaP cells cultured in CSS + DHT medium: 74 % untreated control
  Proliferation (% untreated control) in LNCaP cells cultured in complete medium: 65 % untreated control
LNCaP cells; 5.0 μM
  Proliferation (% untreated control) in LNCaP cells cultured in CSS + DHT medium: 33 % untreated control
  Proliferation (% untreated control) in LNCaP cells cultured in complete medium: 45 % untreated control
LNCaP cells; complete medium or CSS+1 nM DHT
  proliferation of LNCaP cells: reduced proliferation of the cells in a dose dependent compared to the control
AR mRNA; 0.04 μM
  Percent expression of AR in LNCaP cells cultured in CSS + DHT medium: 107%
  Percent expression of AR in LNCaP cells cultured in CSS medium: 91%
AR mRNA; 0.2 μM
  Percent expression of AR in LNCaP cells cultured in CSS + DHT medium: 121%
  Percent expression of AR in LNCaP cells cultured in CSS medium: 67%
  Percent expression of AR in LNCaP cells cultured in complete medium: 133%
AR mRNA; 1 μM
  Percent expression of AR in LNCaP cells cultured in CSS + DHT medium: 110%
  Percent expression of AR in LNCaP cells cultured in CSS medium: 64%
  Percent expression of AR in LNCaP cells cultured in complete medium: 121%
AR mRNA; 5.0 μM
  Percent expression of AR in LNCaP cells cultured in CSS + DHT medium: 113%
  Percent expression of AR in LNCaP cells cultured in CSS medium: 77%
  Percent expression of AR in LNCaP cells cultured in complete medium: 139%
TMPRSS2 mRNA [3]; CSS + DHT medium, 0.04 μM
  Percent of gene expression, TMPRSS2: 17%
TMPRSS2 mRNA [3]; CSS + DHT medium, 0.2 μM
  Percent of gene expression, TMPRSS2: 9%
TMPRSS2 mRNA [3]; CSS + DHT medium, 1.0 μM
  Percent of gene expression, TMPRSS2: 26%
TMPRSS2 mRNA [3]; CSS + DHT medium, 5.0 μM
  Percent of gene expression, TMPRSS2: 18%
TMPRSS2 mRNA [3]; complete medium, 0.04 μM
  Percent of gene expression, TMPRSS2: 101%
TMPRSS2 mRNA [3]; complete medium, 0.2 μM
  Percent of gene expression, TMPRSS2: 80%
TMPRSS2 mRNA [3]; complete medium, 1.0 μM
  Percent of gene expression, TMPRSS2: 82%
TMPRSS2 mRNA [3]; complete medium, 5.0 μM
  Percent of gene expression, TMPRSS2: 93%
